Values quoted from earlier work as cited in publication PMC7383509 (Clinical Pharmacology in Drug Development, 2019).

Columns and labels:
[1] = major metabolite of oliceridine, cited from earlier work
[2] = tested on: μ receptor; details: major metabolites of oliceridine; ref data on file; cited from earlier work

SMILES: NCC[C@@]1(c2ccccn2)CCOC2(CCCC2)C1 [TRV0109662]
- Share of total by AUC [1]: ≥ 10%
- Share of total drug‐related material ([1]; ref data on file): 17%
- Activity at the μ receptor [2]: inactive
